Patent US20050287565A1, “Methods, compositions and compound assays for inhibiting amyloid-beta protein production” (priority 2004, published 2005)

Key:
Format in all cases: cell-based
TACR1 = TACR1 (Homo sapiens, UniProt P25103); assay: TACR1 agonist and antagonist validation in Hek293 APPwt cells, amyloid beta ELISA; conditions: Hek293 APPwt cells infected with Ad5/TACR1_v1
Procedure: ELISA: The ELISA plate is prepared by coating with a capture antibody (JRF/cAbeta42/26) (the antibody recognizes a specific epitope on the C-terminus of Abeta 1-42; obtained from M Mercken, Johnson and Johnson Pharmaceutical Research and Development, B-2340 Beerse, Belgium) overnight in buffer 42 (Table 2) at a concentration of 2.5 μg/ml. The excess capture antibody is washed away the next morning with PBS and the ELISA plate is then blocked overnight with casein buffer (see Table 2) at 4° C. Upon removal of the blocking buffer, 30 μl of the sample is transferred to the ELISA plate and incubated overnight at 4° C. […]
In addition, for the SH-SY5Y APPwt assay, the samples are also analyzed in an amyloid beta x-42 ELISA. […] Thus, in addition to the amyloidogenic pathway, the non-amyloidogenic pathway is also monitored. […]

ADRA1A [1] = assay: ADRA1A agonist and antagonist validation in Hek293 APPwt cells, amyloid beta ELISA
Excerpt: (§1) To identify novel drug targets that change the APP processing, stable cell lines over expressing APP are made by transfecting Hek293 or SH-SY5Y cells with APP770 wt cDNA cloned into pcDNA3.1, followed by selection with G418 for 3 weeks. At this time point colonies are picked and stable clones are expanded and tested for their secreted amyloid-beta peptide levels. The cell lines designated as “Hek293 APPwt” and “SH-SY5Y APPwt” are used in the assays.
Hek293 APPwt Assay: Cells seeded in collagen-coated plates at a cell density of 15000 cells/well (384 well plate) in DMEM (10% FBS), are infected 24 h later with 1 μl or 0.2 μl of adenovirus (corresponding to an average multiplicity of infection (MOI) of 120 and 24 respectively). The following day, the virus is washed away and DMEM (25 mM Hepes; 10% FBS) is added to the cells. Amyloid-beta peptides are allowed to accumulate during 24 h.
(§2) ELISA: The ELISA plate is prepared by coating with a capture antibody (JRF/cAbeta42/26) (the antibody recognizes a specific epitope on the C-terminus of Abeta 1-42; obtained from M Mercken, Johnson and Johnson Pharmaceutical Research and Development, B-2340 Beerse, Belgium) overnight in buffer 42 (Table 2) at a concentration of 2.5 μg/ml. The excess capture antibody is washed away the next morning with PBS and the ELISA plate is then blocked overnight with casein buffer (see Table 2) at 4° C. Upon removal of the blocking buffer, 30 μl of the sample is transferred to the ELISA plate and incubated overnight at 4° C. After extensive washing with PBS-Tween20 and PBS, 30 μl of the horseradish peroxidase (HRP) labeled detection antibody (Peroxidase Labeling Kit, Roche), JRF/AbetaN/25-HRP (obtained from M Mercken, Johnson and Johnson Pharmaceutical Research and Development, B-2340 Beerse, Belgium) is diluted 1/5000 in buffer C (see Table 2) and added to the wells for another 2 h. Following the removal of excess detection antibody by a wash with PBS-Tween20 and PBS, HRP activity is detected via addition of luminol substrate (Roche), which is converted into a chemiluminescent signal by the HRP enzyme.
In addition, for the SH-SY5Y APPwt assay, the samples are also analyzed in an amyloid beta x-42 ELISA. This ELISA detects all amyloid beta peptide species ending at position 42, comprising 1-42, 11-42 and 17-42 (p3), which originate respectively from BACE activity at position 1 and 11, and alpha secretase activity at position 17. Thus, in addition to the amyloidogenic pathway, the non-amyloidogenic pathway is also monitored. The protocol for the Abeta x-42 ELISA is identical to the protocol for the Abeta 1-42 ELISA, except that a HRP labeled 4G8 antibody (Signet; the antibody recognizes a specific epitope in the center of the Abeta peptides) is used as detection antibody. […]

ADRA1A [2] = assay: ADRA1A agonist and antagonist validation in SH-SY5Y APPwt cells, amyloid beta ELISA
Procedure: as §1
SH-SY5Y APPwt Assay: Cells are seeded in collagen-coated plates at a cell density of 15000 cells/well (384 well plate) in Dulbecco's MEM with Glutamax I+15% FBS HI+non-essential amino acids+Geneticin 500 μg/ml. The cells are differentiated towards the neuronal phenotype by adding 9-cis retinoic acid to a final concentration of 1 μM on day 1, day 3, day 5 and day 8. On day 9, the cells are infected with 1 μl of adenovirus (corresponding to an average multiplicity of infection (MOI) of 120 respectively). The following day, the virus is washed away and DMEM 25 mM Hepes 10% FBS is added to the cells. Amyloid beta peptides are allowed to accumulate for 24 h.
as §2
In addition, for the SH-SY5Y APPwt assay, the samples are also analyzed in an amyloid beta x-42 ELISA. This ELISA detects all amyloid beta peptide species ending at position 42, comprising 1-42, 11-42 and 17-42 (p3), which originate respectively from BACE activity at position 1 and 11, and alpha secretase activity at position 17. Thus, in addition to the amyloidogenic pathway, the non-amyloidogenic pathway is also monitored. […]

[3] = Hek293 APPwt cells infected with Ad5/ADRA1A_v1, increasing amounts of agonist, 24 h, concentration dependent
[4] = SH-SY5Y APPwt cells infected with Ad5/ADRA1A_v1, increasing amounts of agonist, 24 h, concentration dependent

TACR1, sequence (P25103 whole entry): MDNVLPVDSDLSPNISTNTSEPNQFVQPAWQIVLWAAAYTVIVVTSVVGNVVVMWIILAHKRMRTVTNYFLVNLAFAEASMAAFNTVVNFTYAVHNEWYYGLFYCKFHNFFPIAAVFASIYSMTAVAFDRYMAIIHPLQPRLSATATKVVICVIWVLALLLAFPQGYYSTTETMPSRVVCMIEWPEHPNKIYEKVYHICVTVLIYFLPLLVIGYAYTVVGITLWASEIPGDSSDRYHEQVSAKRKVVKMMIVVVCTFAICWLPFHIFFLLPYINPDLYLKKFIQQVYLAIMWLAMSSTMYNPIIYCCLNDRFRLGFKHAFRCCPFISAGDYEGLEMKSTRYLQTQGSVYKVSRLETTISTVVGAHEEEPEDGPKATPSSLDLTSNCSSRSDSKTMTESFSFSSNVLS

## Cl.FC(F)(F)c1cc(CO[C@H]2CCCN[C@H]2c2ccccc2)cc(C(F)(F)F)c1 [L-733,060 hydrochloride]
TACR1; amyloid beta x-42 ELISA, 0.1, 1 and 10 μM antagonist
  observed Substance P EC50 values with increasing concentration of the antagonist: increased
TACR1; substance P plus fixed 0.1, 1 and 10 μM antagonist, 24 h, concentration dependent
  amount of amyloid beta x-42 secreted in the medium: reduces

## CC(C)(Cc1c[nH]c2ccc(Cl)cc12)NCCOc1ccccc1OCC1CC1.Cl [RS-17053 hydrochloride]
ADRA1A [1]; Hek293 APPwt cells infected with Ad5/ADRA1A_v1, A61603 plus fixed 0.1 and 1 μM antagonist, 24 h, concentration dependent
  amount of amyloid beta x-42 secreted in the medium: reduced
ADRA1A [1]; Hek293 APPwt cells, amyloid beta x-42 ELISA, 0.1 and 1 μM antagonist
  observed EC50 values (agonist A61603) with increasing concentration of the antagonist: increased
ADRA1A [2]; SH-SY5Y APPwt cells infected with Ad5/ADRA1A_v1, A61603 plus fixed 0.1 and 1 μM antagonist, 24 h, concentration dependent
  amount of amyloid beta 1-42 secreted in the medium: reduced
ADRA1A [2]; SH-SY5Y APPwt cells, amyloid beta 1-42 ELISA, 0.1 and 1 μM antagonist
  observed EC50 values (agonist A61603) with increasing concentration of the antagonist: increased

## Br.CS(=O)(=O)Nc1c(O)ccc2c1CCCC2C1=NCCN1 (stereo not shown) [A61603]
ADRA1A [1]; [3]
  amount of amyloid beta 1-42 secreted in the medium: decreased
  amount of amyloid beta x-42 secreted in the medium: increased
ADRA1A [2]; [4]
  amount of amyloid beta 1-42 secreted in the medium: increased
  amount of amyloid beta x-42 secreted in the medium: increased
